Results taken from ChEMBL document CHEMBL4680302, “Biologic-like In Vivo Efficacy with Small Molecule Inhibitors of TNFα Identified Using Scaffold Hopping and Structure-Based Drug Design Approaches” (J Med Chem, 2020).
Active and inactive are the calls of the source. No cut-off for these calls is given here.

Columns and labels:
[1] = Metabolic stability in human liver microsomes assessed as half-life; type: ADME, Microsome
[2] = Drug exposure in TNFalpha-induced C57BL/6J mouse at 5 mg/kg, po pretreated with compound prior to 1 hr of TNFalpha challenge and measured at 3 hrs post dose; type: ADME, organism-based; conditions: in vivo, read-out: Drug uptake
Mus musculus [3] = assay: Antiinflammatory activity in TNFalpha-induced C57BL/6J mouse assessed as inhibition of serum IL-6 levels at 5 to 25 mg/kg, po pretreated with compound prior to 1 hr of TNFalpha challenge and measured 2 hrs post TBFalpha challenge by ELISA; type: functional, organism-based; conditions: dose 5-25 mg/kg, time 3.0 hrs
[4] = Drug exposure in TNFalpha-induced C57BL/6J mouse at 25 mg/kg, po pretreated with compound prior to 1 hr of TNFalpha challenge and measured at 3 hrs post dose; type: ADME, organism-based; conditions: in vivo, read-out: Drug uptake
Mus musculus [5] = assay: Antiarthritic activity against anticollagen antibody-induced arthritis BALB/c mouse model assessed as reduction in LPS-induced cells expressing CD3 receptor administered orally twice daily followed by LPS stimulation after 6 hrs measured on day 12 by RT-PCR analysis; type: functional, organism-based; conditions: dose 2-10 mg/kg, time 12.0 day
Mus musculus [6] = assay: Antiarthritic activity against anticollagen antibody-induced arthritis BALB/c mouse model assessed as reduction in LPS-induced IL-17a production administered orally twice daily followed by LPS stimulation after 6 hrs measured on day 12 by RT-PCR analysis; type: functional, organism-based; conditions: dose 2-10 mg/kg, time 12.0 day
Lymphotoxin-beta = molecular target: T1, Lymphotoxin-beta (Homo sapiens, UniProt Q06643); assay: Inhibition of LTbeta (unknown origin)
T1 sequence (Q06643 whole entry): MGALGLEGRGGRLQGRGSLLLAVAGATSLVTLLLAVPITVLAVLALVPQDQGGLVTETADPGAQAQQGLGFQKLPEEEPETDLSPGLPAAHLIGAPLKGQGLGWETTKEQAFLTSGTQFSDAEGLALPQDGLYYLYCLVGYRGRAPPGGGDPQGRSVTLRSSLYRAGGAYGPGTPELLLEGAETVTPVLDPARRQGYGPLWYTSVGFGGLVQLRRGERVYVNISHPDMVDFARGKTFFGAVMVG

[7] = Protein binding in mouse assessed as unbound fraction; type: ADME

**Q.** Which results are given for Cc1nc2cc(F)c(-c3cnc(C(C)(C)O)nc3)nc2c(N[C@H](C)c2cc(C#N)ccc2F)c1Cl?
**A.** half-life [1]: > 2 h; concentration at 3 h [2]: 470 nM; Activity (Mus musculus [3]): Active; concentration at 3 h [4]: 1860 nM; Activity (Mus musculus [5]): Dose-dependent effect; Activity (Mus musculus [6]): Dose-dependent effect; IC50 (Lymphotoxin-beta): > 10 µM; Fu [7]: 0.6%
